Columns and labels:
GPER1 = GPER1 (Homo sapiens, UniProt Q99527); details: cited from earlier work
hepatic lesions = details: in vivo; cited from earlier work
[1] = test system: regenerating larval liver; experiment: Liver regeneration after metronidazole (Mtz) hepatocyte ablation in Tg(fabp10a:CFP-NTR) larvae
[2] = test system: PI3K/Akt, MAPK/Erk and mTORC1 pathways; experiment: Western blot analysis of whole larvae (p-Akt, p-Erk, p-S6); type: in vivo, zebrafish
Text: Pooled larvae (n=30-40) and cultured cells were homogenized in radioimmunoprecipitation assay (RIPA) lysis buffer and processed as previously described.^15 Lysates were separated by gel electrophoresis and subjected to Western blot.

zebrafish larvae liver = experiment: Larval liver size analysis (ISH for fabp10a, fabp10a:GFP imaging) at 120 hpf; type: in vivo; details: for liver size at 120 hpf: compound alone, exposure 110-115 hpf; for liver size in gper1−/− mutants or gper1 morphants: gper1 loss of function larvae; for effect on E2-induced enhancement in liver size: co-exposure with E2 (or knockdown plus E2)
Protocol: Zebrafish larvae were exposed to chemicals, dissolved in 0.1% (v/v) dimethylsulfoxide (DMSO), at specified doses for 5 hrs. from 110-115 hours post fertilization (hpf) and analyzed at 120 hpf (unless otherwise specified). Adults were treated for 5-7 hrs. per exposure with frequency as described.
Larvae were fixed with paraformaldehyde and in situ hybridization (ISH) performed according to standard protocols.^16 gper1 probe was generously gifted by David Volz.^17
ISH images were obtained by brightfield microscopy, and fabp10a:GFP reporter larvae were imaged using fluorescence microscopy. 3D imaging of fabp10a:GFP fish was performed with a Zeiss LightsheetZ.1. […] were fixed and paraffin embedded. Tissues were sectioned (5 μm) and stained with hematoxylin & eosin (H&E). De-identified formalin-fixed paraffin-embedded human liver sections were obtained from pathology files of the University of Utah (IRB 00091019) and commercially available tissue arrays (OD-CT-DgLiv01-003, US Biomax). Immunohistochemistry (IHC) (using antibodies listed in Table 4) and terminal deoxynucleotidyl transferase dUTP nick-end labeling (TUNEL) staining were performed using established protocols.^16 GPER1 staining was scored by a pathologist based on the mean amount of cytoplasmic reactivity in hepatic cells: 0+, minimal/no staining; 1+, faint/mild staining; 2+, moderate staining; 3+, strong staining.

[3] = test system: hepatocytes in larval liver; details: for PCNA+ cells in the liver: compound alone, larvae
Protocol: ISH images were obtained by brightfield microscopy, and fabp10a:GFP reporter larvae were imaged using fluorescence microscopy. 3D imaging of fabp10a:GFP fish was performed with a Zeiss LightsheetZ.1. […] Tissues were sectioned (5 μm) and stained with hematoxylin & eosin (H&E).
fabp10a:GFP+ hepatocytes = details: zebrafish, in vivo
Protocol: To determine the cellular mechanism by which E2 enlarges liver size, cell cycle analysis was performed on propidium iodide-stained fabp10a:GFP^+ hepatocytes by flow cytometry (FIG. 3A).

[4] = test system: liver tumors in DMBA-exposed WT zebrafish; experiment: DMBA chemical carcinogenesis followed by chemical prevention trial
Protocol: gper1^−/− or wild-type fry were exposed to 5 ppm dimethylbenzanthrazene (DMBA) for 24 hrs. at 3, 4, and 5 weeks.^19 Fish recovered for 1 week prior to longitudinal chemical exposures commencing at 6 weeks (3 times/week). Fish were monitored daily for survival and tumor formation until 33 weeks post DMBA treatment. Fish were either analyzed immediately after death or at 33 weeks post DMBA exposure, when all remaining fish were sacrificed. Histologic analysis was performed by a board-certified pathologist with expertise in zebrafish liver histology in a blinded fashion.

HepG2 cells = experiment: HepG2 signaling immunoblot (p-Akt, p-S6); details: G15 500 nM co-exposure with E2 10 nM
Protocol: HepG2 cells (Sigma-Aldrich, USA) were cultured in phenol-red free, Minimum Essential Medium Eagle (MEM) supplemented with 10% heat-inactivated fetal bovine serum (Hyclone, Thermo Scientific, USA), L-glutamine (2 mM), 1% non-essential amino acids and penicillin-streptomycin (10,000 U/mL), at 37° C. and 5% CO2.

GPER1, sequence (Q99527 whole entry): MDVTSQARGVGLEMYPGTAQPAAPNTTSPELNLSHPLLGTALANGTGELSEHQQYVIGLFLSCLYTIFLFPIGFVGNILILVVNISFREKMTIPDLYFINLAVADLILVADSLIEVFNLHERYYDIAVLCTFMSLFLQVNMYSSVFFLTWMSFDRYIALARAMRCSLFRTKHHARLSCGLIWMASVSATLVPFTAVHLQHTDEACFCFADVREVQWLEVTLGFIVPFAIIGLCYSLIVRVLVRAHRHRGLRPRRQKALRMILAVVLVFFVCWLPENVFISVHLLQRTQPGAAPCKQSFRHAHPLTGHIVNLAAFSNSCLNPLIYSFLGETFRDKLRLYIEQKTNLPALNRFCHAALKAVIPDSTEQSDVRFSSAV

Compound: CC/C(=C(\c1ccccc1)c1ccc(OCCN(C)C)cc1)c1ccccc1 [tamoxifen]
- action on GPER1 (GPER1): agonist
- size and number of hepatic lesions (hepatic lesions): increased the size and number of hepatic lesions

Compound: CC/C(=C(\c1ccc(O)cc1)c1ccc(OCCN(C)C)cc1)c1ccccc1 [4-OHT]
- action on GPER1 (GPER1): activated

Compound: CC(=O)c1ccc2c(c1)C1C=CCC1C(c1cc3c(cc1Br)OCO3)N2 (stereo not shown) [G-1]
- liver size at 30 hpT after Mtz ablation ([1]; WT larvae, chemical incubation for 5 hours, vs controls): significantly larger liver size
- liver regrowth after ablation in gper1−/− mutants ([1]; gper1−/− larvae): not enhanced
- liver regrowth after ablation in mtor−/− mutants ([1]; mtor−/− larvae): not impacted
- phosphorylated S6 (p-S6) ([2]; WT whole larvae): increased phosphorylated S6
- liver size at 120 hpf (zebrafish larvae liver; WT larvae): increased liver size
- liver size in gper1−/− mutants or gper1 morphants (zebrafish larvae liver; 120 hpf): did not respond
- liver size in hypomorphic mtor mutants (zebrafish larvae liver; mtor mutants, 120 hpf): did not change
- PCNA+ cells in the liver [3]: fractional increase
- hepatocytes in G2/M phase (fabp10a:GFP+ hepatocytes): 9.4%
- hepatocytes in S phase (fabp10a:GFP+ hepatocytes): 21.8%
- total hepatocyte number by FACS (fabp10a:GFP+ hepatocytes): increased

Compound: NC1(c2ccc(-c3nc4ccn5c(=O)[nH]nc5c4cc3-c3ccccc3)cc2)CCC1 [MK-2206]
- effect on E2-induced enhancement in liver size (zebrafish larvae liver; WT larvae, 120 hpf): diminished this effect
- liver size at 120 hpf (zebrafish larvae liver; WT larvae): decreased liver size

Compound: 740Y-P
- p-Akt in gper1−/− mutants ([2]; gper1−/− whole larvae): restored to WT levels
- larvae with increased liver size (zebrafish larvae liver; WT larvae, 120 hpf, larvae with phenotype out of total observed): 77%
- liver size at 120 hpf (zebrafish larvae liver; WT larvae): increased liver size
- liver size in gper1−/− mutants or gper1 morphants (zebrafish larvae liver; 120 hpf): rescued liver growth
- gper1 morphants with small liver phenotype rescued (zebrafish larvae liver; gper1 morphants, 120 hpf): 61%

Compound: C[C@]12CC[C@@H]3c4ccc(O)cc4C[C@@H](CCCCCCCCC[S+]([O-])CCCC(F)(F)C(F)(F)F)[C@H]3[C@@H]1CC[C@@H]2O (stereo partly shown) [fulvestrant]
- action on GPER1 (GPER1): activated

Compound: CC(C)(C#N)c1cc(Cn2cncn2)cc(C(C)(C)C#N)c1 [anastrozole]
- liver size at 120 hpf (zebrafish larvae liver; WT larvae): decrease in liver size

Compound: Brc1cc2c(cc1[C@@H]1Nc3ccccc3[C@@H]3C=CC[C@@H]31)OCO2 (racemic) [G-15, (3aS,4R,9bR)-4-(6-Bromo-1,3-benzodioxol-5-yl)-3a,4,5,9b-3H-cyclopenta[c]quinoline]
- impact of blockade on E2-induced tumor size, sex-stratified ([4]; E2+G-15, male vs female fish): predominantly observed in male, less in female fish
- liver tumor size (mean) ([4]; E2+G-15 co-exposure, up until 9 mpf): 0.4 mm
- effect on E2-associated increases in p-Akt and p-S6 (HepG2 cells): blocked
- effect on E2-induced enhancement in liver size (zebrafish larvae liver; WT larvae, 120 hpf): specifically inhibited
- liver size at 120 hpf (zebrafish larvae liver; WT larvae): reduced liver size
- PCNA+ cells in the liver [3]: decreased
- effect on E2-induced increase in PCNA+ hepatocytes ([3]; zebrafish, in vivo): inhibited
- hepatocytes in G2/M phase (fabp10a:GFP+ hepatocytes): 2.9%
- hepatocytes in S phase (fabp10a:GFP+ hepatocytes): 16.2%

Compound: O=c1cc(N2CCOCC2)oc2c(-c3ccccc3)cccc12 [LY292002]
- larvae with decreased liver size (zebrafish larvae liver; 120 hpf, larvae with phenotype out of total observed): 72%
- larvae in which estrogenic effect on liver size was blocked (zebrafish larvae liver; co-treatment of E2 and LY292002, WT larvae, 120 hpf): 86%

Reference: patent US11040054B2, “Estrogen sensing through GPER1 regulates normal and malignant liver growth” (The Brigham and Women's Hospital, Inc., priority 2016, dated 2021)
